Activity calls are given as the source filed them.
What was measured:
[1] = target: Muscarinic acetylcholine receptor M5 (Homo sapiens) (UniProt P08912); details: Compound concentration 10.0 uM
[2] = target: T1, Bromodomain-containing protein 2 (Homo sapiens, UniProt P25440); experiment: BRD2(1,2) DiscoverX BROMOscan
Target sequence in this assay (P25440 whole entry): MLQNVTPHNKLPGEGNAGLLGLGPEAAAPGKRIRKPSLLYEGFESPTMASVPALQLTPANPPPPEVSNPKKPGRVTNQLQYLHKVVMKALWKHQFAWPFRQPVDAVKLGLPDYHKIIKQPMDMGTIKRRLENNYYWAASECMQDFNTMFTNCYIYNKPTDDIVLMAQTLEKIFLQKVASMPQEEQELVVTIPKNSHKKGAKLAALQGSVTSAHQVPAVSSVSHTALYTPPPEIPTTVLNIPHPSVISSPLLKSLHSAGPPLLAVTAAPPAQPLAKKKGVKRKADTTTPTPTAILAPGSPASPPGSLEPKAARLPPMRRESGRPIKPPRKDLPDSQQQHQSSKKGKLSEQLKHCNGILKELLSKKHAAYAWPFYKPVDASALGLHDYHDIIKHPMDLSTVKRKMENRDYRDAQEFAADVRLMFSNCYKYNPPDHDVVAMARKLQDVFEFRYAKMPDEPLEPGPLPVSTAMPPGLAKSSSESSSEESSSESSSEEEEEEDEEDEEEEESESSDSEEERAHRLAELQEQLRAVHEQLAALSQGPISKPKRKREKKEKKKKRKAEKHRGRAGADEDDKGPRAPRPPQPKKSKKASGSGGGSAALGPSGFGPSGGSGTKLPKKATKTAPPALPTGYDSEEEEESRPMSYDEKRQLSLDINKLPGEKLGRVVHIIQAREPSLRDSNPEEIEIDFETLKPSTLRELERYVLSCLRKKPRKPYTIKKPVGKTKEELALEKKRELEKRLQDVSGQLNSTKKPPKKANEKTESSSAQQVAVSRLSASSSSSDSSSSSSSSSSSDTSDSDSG

[3] = target: T1, Bromodomain-containing protein 2; experiment: TR-FRET assay (BRD2 BD2)
Target sequence in this assay (P25440 whole entry): as above

[4] = target: GABA-A receptor; anion channel (Rattus norvegicus) (UniProt O09028+P15431+P18506+P18508+P19969+P20236+P23574+P23576+P28471+P28473+P30191+P62813+P63079+P63138+Q91ZM7+Q9ES14); details: Compound concentration 10.0 uM
[5] = target: T2, Bromodomain-containing protein 3 (Homo sapiens, UniProt Q15059); experiment: BRD3(1,2) DiscoverX BROMOscan
Target sequence in this assay (Q15059 whole entry): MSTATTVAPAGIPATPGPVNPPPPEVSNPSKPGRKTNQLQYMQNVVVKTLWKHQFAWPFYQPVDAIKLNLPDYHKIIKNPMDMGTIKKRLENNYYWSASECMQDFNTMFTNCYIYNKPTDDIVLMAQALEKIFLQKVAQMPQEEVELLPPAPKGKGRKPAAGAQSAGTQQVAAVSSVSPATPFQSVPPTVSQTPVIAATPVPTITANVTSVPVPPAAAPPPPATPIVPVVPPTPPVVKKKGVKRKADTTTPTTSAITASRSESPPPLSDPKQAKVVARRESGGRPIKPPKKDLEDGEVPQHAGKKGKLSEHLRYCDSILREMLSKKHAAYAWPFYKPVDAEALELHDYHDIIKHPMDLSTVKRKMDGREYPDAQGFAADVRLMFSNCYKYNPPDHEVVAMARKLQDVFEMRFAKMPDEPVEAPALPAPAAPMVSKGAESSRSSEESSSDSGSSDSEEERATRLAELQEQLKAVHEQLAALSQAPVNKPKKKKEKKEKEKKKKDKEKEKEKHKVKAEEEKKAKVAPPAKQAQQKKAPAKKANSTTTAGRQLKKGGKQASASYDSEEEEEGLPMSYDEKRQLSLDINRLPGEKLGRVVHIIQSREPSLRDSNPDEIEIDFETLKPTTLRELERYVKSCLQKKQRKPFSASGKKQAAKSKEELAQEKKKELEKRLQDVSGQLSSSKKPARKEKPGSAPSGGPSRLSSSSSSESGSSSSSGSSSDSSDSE

[6] = target: Transcription intermediary factor 1-alpha (Homo sapiens, UniProt O15164); experiment: TRIM24(PHD,Bromo.) DiscoverX BROMOscan
[7] = target: Bromodomain-containing protein 7 (Homo sapiens, UniProt Q9NPI1); experiment: BRD7 DiscoverX BROMOscan
[8] = target: T2, Bromodomain-containing protein 3; experiment: BET mutant TR-FRET assay (BRD3 BD2)
[9] = target: T3, Bromodomain testis-specific protein (Homo sapiens, UniProt Q58F21); experiment: BRDT BD1 Bromoscan (DiscoverX)
[10] = target: T2, Bromodomain-containing protein 3; experiment: BRD3 BD1 Bromoscan (DiscoverX)
Target sequence in this assay (Q15059 whole entry): as above

[11] = target: T3, Bromodomain testis-specific protein; experiment: BRDT(1,2) DiscoverX BROMOscan
[12] = target: T3, Bromodomain testis-specific protein; experiment: BRDT(1) DiscoverX BROMOscan
[13] = target: 5-hydroxytryptamine receptor 6 (Homo sapiens) (UniProt P50406); details: Compound concentration 10.0 uM
5-hydroxytryptamine receptor 6 (Homo sapiens), sequence (P50406 whole entry): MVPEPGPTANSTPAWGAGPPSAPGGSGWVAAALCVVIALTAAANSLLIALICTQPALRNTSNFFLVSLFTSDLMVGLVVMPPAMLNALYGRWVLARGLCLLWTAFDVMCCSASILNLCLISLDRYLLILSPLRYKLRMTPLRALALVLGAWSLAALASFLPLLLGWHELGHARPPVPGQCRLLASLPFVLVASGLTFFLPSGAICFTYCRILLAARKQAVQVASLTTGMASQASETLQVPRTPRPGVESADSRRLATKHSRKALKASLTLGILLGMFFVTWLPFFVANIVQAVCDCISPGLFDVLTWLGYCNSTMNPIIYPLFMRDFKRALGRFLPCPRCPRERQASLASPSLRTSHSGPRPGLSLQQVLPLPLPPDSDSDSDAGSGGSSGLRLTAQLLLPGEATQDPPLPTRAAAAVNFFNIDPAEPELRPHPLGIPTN

[14] = target: T3, Bromodomain testis-specific protein; experiment: BET mutant TR-FRET assay (BRDT BD1)
[15] = target: 5-hydroxytryptamine receptor 2B (Homo sapiens) (UniProt P41595); details: Compound concentration 10.0 uM
[16] = target: Bromodomain and WD repeat-containing protein 1 (Homo sapiens, UniProt Q9NSI6); experiment: WDR9(2) DiscoverX BROMOscan
[17] = target: Sodium-dependent dopamine transporter (Homo sapiens) (UniProt Q01959); details: Compound concentration 10.0 uM
[18] = target: SWI/SNF-related matrix-associated actin-dependent regulator of chromatin subfamily A member 4 (Homo sapiens, UniProt P51532); experiment: SMARCA4 DiscoverX BROMOscan
SWI/SNF-related matrix-associated actin-dependent regulator of chromatin subfamily A member 4, sequence (P51532 whole entry): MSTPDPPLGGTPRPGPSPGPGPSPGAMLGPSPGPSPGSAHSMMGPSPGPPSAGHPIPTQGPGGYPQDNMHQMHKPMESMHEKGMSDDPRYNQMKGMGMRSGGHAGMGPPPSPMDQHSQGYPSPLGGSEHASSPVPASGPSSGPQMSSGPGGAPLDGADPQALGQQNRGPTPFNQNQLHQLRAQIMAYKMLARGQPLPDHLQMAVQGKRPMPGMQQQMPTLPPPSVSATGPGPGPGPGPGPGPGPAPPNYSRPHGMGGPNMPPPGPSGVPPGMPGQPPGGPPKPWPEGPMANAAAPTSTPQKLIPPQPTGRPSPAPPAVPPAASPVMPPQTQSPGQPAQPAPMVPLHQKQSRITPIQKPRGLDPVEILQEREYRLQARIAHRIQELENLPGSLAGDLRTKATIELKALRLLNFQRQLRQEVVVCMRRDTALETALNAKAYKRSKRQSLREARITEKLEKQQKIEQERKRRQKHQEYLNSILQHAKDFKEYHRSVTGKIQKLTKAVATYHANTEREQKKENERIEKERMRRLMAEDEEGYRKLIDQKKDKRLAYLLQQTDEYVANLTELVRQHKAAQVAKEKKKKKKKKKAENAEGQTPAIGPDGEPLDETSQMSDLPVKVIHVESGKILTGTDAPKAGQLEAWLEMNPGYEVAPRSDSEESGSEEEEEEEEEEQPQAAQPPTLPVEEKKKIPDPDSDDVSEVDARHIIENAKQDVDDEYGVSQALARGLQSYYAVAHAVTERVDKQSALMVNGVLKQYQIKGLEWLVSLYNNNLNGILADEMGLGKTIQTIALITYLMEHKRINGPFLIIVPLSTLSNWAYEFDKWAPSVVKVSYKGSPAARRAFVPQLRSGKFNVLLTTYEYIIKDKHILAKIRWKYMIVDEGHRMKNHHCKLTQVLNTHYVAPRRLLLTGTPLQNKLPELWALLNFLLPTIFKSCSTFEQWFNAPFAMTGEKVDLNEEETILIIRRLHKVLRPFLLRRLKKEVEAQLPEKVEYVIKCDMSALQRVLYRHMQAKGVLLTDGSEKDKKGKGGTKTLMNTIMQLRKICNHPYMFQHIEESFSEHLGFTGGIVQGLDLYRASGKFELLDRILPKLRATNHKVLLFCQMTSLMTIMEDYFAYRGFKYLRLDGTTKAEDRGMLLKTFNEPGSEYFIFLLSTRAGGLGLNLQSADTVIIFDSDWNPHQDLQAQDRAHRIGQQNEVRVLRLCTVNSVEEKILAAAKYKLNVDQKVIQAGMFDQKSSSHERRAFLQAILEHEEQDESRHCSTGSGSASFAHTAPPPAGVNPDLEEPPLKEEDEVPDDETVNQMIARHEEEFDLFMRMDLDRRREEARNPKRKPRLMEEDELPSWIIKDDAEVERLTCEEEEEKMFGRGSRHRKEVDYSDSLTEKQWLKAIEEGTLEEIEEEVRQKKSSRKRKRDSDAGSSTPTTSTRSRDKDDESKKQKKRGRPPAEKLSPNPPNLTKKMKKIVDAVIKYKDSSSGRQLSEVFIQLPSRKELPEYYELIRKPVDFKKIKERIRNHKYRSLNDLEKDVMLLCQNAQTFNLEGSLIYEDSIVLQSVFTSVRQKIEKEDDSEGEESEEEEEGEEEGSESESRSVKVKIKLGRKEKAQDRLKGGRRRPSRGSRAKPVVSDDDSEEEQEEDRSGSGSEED

D(2) dopamine receptor = D(2) dopamine receptor (Homo sapiens, UniProt P14416); details: Compound concentration 10.0 uM
[19] = target: ATPase family AAA domain-containing protein 2 (Homo sapiens, UniProt Q6PL18); experiment: ATAD2A DiscoverX BROMOscan
[20] = target: Histone acetyltransferase KAT2A (Homo sapiens, UniProt Q92830); experiment: GCN5L2 DiscoverX BROMOscan
C-C motif chemokine 2 = C-C motif chemokine 2 (Homo sapiens, UniProt P13500); experiment: In vitro inhibition of MCP-1 in Lipopolysaccharide-stimulated human whole blood; assay type: tissue-based
[21] = target: T1, Bromodomain-containing protein 2; experiment: BRD2 BD1 Bromoscan (DiscoverX)
Target sequence in this assay (P25440 whole entry): as the sequence (P25440 whole entry) above

[22] = target: T2, Bromodomain-containing protein 3; experiment: BRD3(2) DiscoverX BROMOscan
Target sequence in this assay (Q15059 whole entry): as the sequence (Q15059 whole entry) above

[23] = target: Bromodomain adjacent to zinc finger domain protein 2B (Homo sapiens, UniProt Q9UIF8); experiment: BAZ2B DiscoverX BROMOscan
[24] = target: 5-hydroxytryptamine receptor 7 (Homo sapiens) (UniProt P34969); details: Compound concentration 10.0 uM
[25] = target: 5-hydroxytryptamine receptor 1D (Homo sapiens, UniProt P28221); details: Compound concentration 10.0 uM
[26] = target: 5-hydroxytryptamine receptor 2C (Homo sapiens) (UniProt P28335); experiment: (§1) Cross screening panel; details: filed as antagonist
5-hydroxytryptamine receptor 2C (Homo sapiens), sequence (P28335 whole entry): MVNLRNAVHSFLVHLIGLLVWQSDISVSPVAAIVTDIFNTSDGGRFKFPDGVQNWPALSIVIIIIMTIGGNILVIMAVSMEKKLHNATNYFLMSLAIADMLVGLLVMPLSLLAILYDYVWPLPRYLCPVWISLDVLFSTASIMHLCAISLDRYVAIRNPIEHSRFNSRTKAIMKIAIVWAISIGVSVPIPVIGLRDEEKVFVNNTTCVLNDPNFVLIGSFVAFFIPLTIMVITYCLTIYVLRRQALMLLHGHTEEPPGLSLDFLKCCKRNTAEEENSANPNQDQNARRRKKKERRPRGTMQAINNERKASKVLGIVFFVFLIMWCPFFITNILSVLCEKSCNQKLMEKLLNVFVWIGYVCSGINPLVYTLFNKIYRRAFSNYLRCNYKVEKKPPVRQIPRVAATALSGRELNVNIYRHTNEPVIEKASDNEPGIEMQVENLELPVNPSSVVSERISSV

[27] = target: 5-hydroxytryptamine receptor 2A (Homo sapiens, UniProt P28223); experiment: as §1; details: filed as antagonist
[28] = target: T3, Bromodomain testis-specific protein; experiment: TR-FRET assay (BRDT BD2)
Peregrin = Peregrin (Homo sapiens, UniProt P55201); experiment: BRPF1 DiscoverX BROMOscan
[29] = target: T2, Bromodomain-containing protein 3; experiment: BRD3(1) DiscoverX BROMOscan
Target sequence in this assay (Q15059 whole entry): as the sequence (Q15059 whole entry) above

[30] = target: Bromodomain-containing protein 9 (Homo sapiens, UniProt Q9H8M2); experiment: BRD9 DiscoverX BROMOscan
Bromodomain-containing protein 9, sequence (Q9H8M2 whole entry): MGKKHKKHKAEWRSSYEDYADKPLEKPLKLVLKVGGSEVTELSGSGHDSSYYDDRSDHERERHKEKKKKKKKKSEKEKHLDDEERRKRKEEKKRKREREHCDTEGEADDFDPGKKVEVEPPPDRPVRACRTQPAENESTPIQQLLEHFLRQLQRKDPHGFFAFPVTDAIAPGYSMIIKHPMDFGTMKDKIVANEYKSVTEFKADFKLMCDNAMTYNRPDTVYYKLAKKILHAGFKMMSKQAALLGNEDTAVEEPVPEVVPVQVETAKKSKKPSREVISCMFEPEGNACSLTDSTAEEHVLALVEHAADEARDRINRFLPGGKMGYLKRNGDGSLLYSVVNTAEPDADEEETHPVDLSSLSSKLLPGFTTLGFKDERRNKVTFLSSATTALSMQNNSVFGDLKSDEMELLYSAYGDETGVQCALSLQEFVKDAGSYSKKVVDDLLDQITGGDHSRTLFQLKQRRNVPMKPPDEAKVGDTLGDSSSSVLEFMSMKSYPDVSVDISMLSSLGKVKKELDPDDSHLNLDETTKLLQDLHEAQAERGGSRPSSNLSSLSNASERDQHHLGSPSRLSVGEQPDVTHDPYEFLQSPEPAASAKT

[31] = target: Alpha-2C adrenergic receptor (Homo sapiens) (UniProt P18825); details: Compound concentration 10.0 uM
[32] = target: Beta-2 adrenergic receptor (Homo sapiens, UniProt P07550); details: Compound concentration 10.0 uM
[33] = target: T1, Bromodomain-containing protein 2; experiment: BRD2 BD2 Bromoscan (DiscoverX)
Target sequence in this assay (P25440 whole entry): as the sequence (P25440 whole entry) above

D(1A) dopamine receptor = D(1A) dopamine receptor (Homo sapiens, UniProt P21728); details: Compound concentration 10.0 uM
[34] = target: Muscarinic acetylcholine receptor M2 (Homo sapiens) (UniProt P08172); details: Compound concentration 10.0 uM
[35] = target: SWI/SNF-related matrix-associated actin-dependent regulator of chromatin subfamily A member 2 (Homo sapiens, UniProt P51531); experiment: SMARCA2 DiscoverX BROMOscan
[36] = target: ATPase family AAA domain-containing protein 2B (Homo sapiens, UniProt Q9ULI0); experiment: ATAD2B DiscoverX BROMOscan
[37] = target: T2, Bromodomain-containing protein 3; experiment: BRD3 BD2 Bromoscan (DiscoverX)
Target sequence in this assay (Q15059 whole entry): as the sequence (Q15059 whole entry) above

[38] = target: 5-hydroxytryptamine receptor 2C (Homo sapiens) (UniProt P28335); details: Compound concentration 10.0 uM
[39] = target: Muscarinic acetylcholine receptor M4 (Homo sapiens) (UniProt P08173); details: Compound concentration 10.0 uM
[40] = target: Transcription initiation factor TFIID subunit 1-like (Homo sapiens, UniProt Q8IZX4); experiment: TAF1L(2) DiscoverX BROMOscan
CREB-binding protein = CREB-binding protein (Homo sapiens, UniProt Q92793); experiment: CREBBP DiscoverX BROMOscan
[41] = target: Muscarinic acetylcholine receptor M1 (Homo sapiens) (UniProt P11229); details: Compound concentration 10.0 uM
[42] = target: Beta-1 adrenergic receptor (Homo sapiens) (UniProt P08588); details: Compound concentration 10.0 uM
[43] = target: T1, Bromodomain-containing protein 2; experiment: BET mutant TR-FRET assay (BRD2 BD1)
[44] = target: T2, Bromodomain-containing protein 3; experiment: TR-FRET assay (BRD3 BD2)
Target sequence in this assay (Q15059 whole entry): as above

[45] = target: Histone acetyltransferase p300 (Homo sapiens, UniProt Q09472); experiment: EP300 DiscoverX BROMOscan
[46] = target: GABA-A receptor; anion channel; experiment: as §1; assay type: protein-complex assay
[47] = target: Voltage-gated potassium channel, IKs; KCNQ1(Kv7.1)/KCNE1(MinK) (Homo sapiens, UniProt P15382+P51787); experiment: as §1; assay type: protein-complex assay
[48] = target: E3 ubiquitin-protein ligase TRIM33 (Homo sapiens, UniProt Q9UPN9); experiment: TRIM33(PHD,Bromo.) DiscoverX BROMOscan

CC(=O)Nc1c(F)cc(C(=O)N[C@H]2CC[C@H](O)CC2)cc1O[C@@H](C)c1ccccc1 [GSK046]
inactive: inhibition [1] 0.93% | inhibition [4] 15.3% | inhibition [13] 11.4% | inhibition [15] -6.98% | inhibition [17] 3.3% | inhibition (D(2) dopamine receptor) 25.8% | inhibition [24] 17.6% | inhibition [31] -0.86% | inhibition [32] 28.1% | inhibition (D(1A) dopamine receptor) 4.11% | inhibition [34] 18.1% | inhibition [38] 14% | inhibition [39] -0.27% | inhibition [41] -4.64% | inhibition [42] -6.85%
active: IC50 [3] 0.264 µM | IC50 (C-C motif chemokine 2) 0.316 µM | inhibition [25] 84.2% | IC50 [28] 0.214 µM | Kd [33] 0.035 µM | Kd [37] 0.032 µM | IC50 [44] 0.098 µM
> 25.1 µM: IC50 [47]
1.62 µM (not active): Kd [21]
7: pIC50 [8]
< 4.6: fpKi [26] | fpKi [27]
0.036 µM: Kd [11]
2.08 µM (not active): Kd [10]
2.08 µM: Kd [29]
0.033 µM: Kd [22]
2.45 µM (not active): Kd [9]
0.047 µM: Kd [5]
2.45 µM: Kd [12]
5: pIC50 [43]
< 4: pEC50 [46] | pIC50 [46]
0.1 µM: Kd [2]
30 µM: Kd [6] | Kd [7] | Kd [16] | Kd [18] | Kd [19] | Kd [20] | Kd [23] | Kd (Peregrin) | Kd [30] | Kd [35] | Kd [36] | Kd [40] | Kd (CREB-binding protein) | Kd [45] | Kd [48]
4.3: pIC50 [14]
